Measured values published in patent publication US20170216399A1, “COMPOSITIONS, METHODS AND USES FOR PROTECTING WHITE BLOOD CELLS FROM SUPPRESSION OR DEATH” (LOS ANGELES BIOMEDICAL RESEARCH INSTITUTE AT HARBO-UCLA …, priority 2014, published 2017).
Marks after values point to notes of the source that are not given here. Ends that are not written are not given here.

What was measured:
[1] = system: cells; conditions: HN mutant compared with HN; cited from earlier work
[2] = system: white blood cells; format: in vivo
Procedure: (§1) Body weight (BW) was recorded at autopsy.
The effect of a potent HN analog HNG (HN-S14G) (5mg/KG/day, IP) with and without concomitant cyclophosphamide (CP, 200 mg IP) treatment was administered to 4 adult healthy mice in each group. Another four mice served as controls. Two days after treatment, the animals were killed and their peripheral blood cells were collected and the blood cell counts were assessed by a blood cell counter.

[3] = system: white blood cells; format: in vivo; conditions: CP 200 mg IP single dose, melanoma-bearing mice (FIG. 2)
Procedure: The effect of a potent HN analog HNG (HN-S14G) with or without cyclophosphamide (CP) in a mouse melanoma with lung metastasis model was studied. Five mice were used as control (Con) and 40 mice were inoculated intravenously with B16 murine melanoma cells. Of these mice five received no further treatment (NT). A week later the remaining 35 mice (n=5 per group) were treated for additional 2 weeks with: • 1) HNG 0.05 mg/KG body weight (BW) daily IP injection for 2 weeks; • 2) HNG 0.5 mg mg/Kg BW daily IP injection for 2 weeks; • 3) HNG 5 mg/Kg BW daily IP injection for 2 weeks; • 4) a single CP (200 mg IP single dose) injection+HNG 0.05 mg/KG body weight (BW) daily IP injection for 2 weeks; • 5) a single CP (200 mg IP single dose) injection+HNG 0.5 mg mg/Kg BW daily IP injection for 2 weeks; • 6) a single CP (200 mg IP single dose) injection HNG 0.5 mg mg/Kg BW daily IP injection for 2 weeks; • 7) a single CP (200 mg IP single dose) injection+HNG 5 mg mg/Kg BW daily IP injection.
All mice were sacrificed three weeks after tumor inoculation and two weeks after CP/HNG treatment. Blood was obtained for the measurement of white blood cell (WBC) count by a Coulter Counter.

[4] = system: peripheral blood leucocytes
Procedure: (§2) Mice were injected with heparin (1300 IU/kg BW, ip) 15 min before sacrifice by sodium pentobarbital (200 mg/kg BW IP). Body weight (BW) was recorded at autopsy. Blood samples were collected from the right ventricle of each mouse immediately after death and used for complete blood count using an automated cell counter (VetScanHM2, ABAXIS, Union City, Calif.). Plasma was separated and stored at −20° C. for subsequent HNG, IGF-1 and IGFBP-1 measurements by specific and sensitive ELISA assays as previously described (Chin et al., Endocrinology. 2013; 154:3739-44; Hwang et al, Growth Horm IGF Res 2008; 18: 65-74).
(§3) Twenty-five young adult (12-week-old) male mice (C57BL/6J) were used for this experiment in which 5 mice were used as control and 20 mice of each were intravenously inoculated via the tail vein with 1×10^5 murine B16 melanoma cells. 20 tumor-bearing mice were randomly divided into 4 groups with 5 mice in each group received 1) no treatment; 2) HNG alone; 3) CP alone; and 4) a combination treatment with the doses and duration described above.

[5] = system: IGF-1; assay: Plasma IGF-1 levels (ELISA) in B16 tumor-bearing mice; format: in vivo, mouse; conditions: treatment alone, tumor-bearing mice (FIG. 3B)
Procedure: as §2, §3

[6] = system: murine B16 melanoma cells; assay: Lung melanoma metastases in B16 tumor-bearing mice; format: in vivo, mouse; conditions: treatment alone vs non-treated tumor-bearing mice
Text: In this study the tumor loading dose was 1×10^5 B16 cells per mouse to examine the effects of HNG on peripheral blood leucocytes, plasma IGF-1 and IGFBP-1 levels while confirming its additive or synergistic effect on CP-induced suppression of lung melanoma metastases. Twenty-five young adult (12-week-old) male mice (C57BL/6J) were used for this experiment in which 5 mice were used as control and 20 mice of each were intravenously inoculated via the tail vein with 1×10^5 murine B16 melanoma cells. 20 tumor-bearing mice were randomly divided into 4 groups with 5 mice in each group received 1) no treatment; 2) HNG alone; 3) CP alone; and 4) a combination treatment with the doses and duration described above.

[7] = system: red blood cell or platelet; assay: Red blood cell and platelet counts in B16 tumor-bearing mice
Procedure: as §2, §3

[8] = system: IGF-1; assay: Plasma IGF-1 levels among groups in healthy mice (Table 6); format: in vivo, mouse; conditions: mean ± SEM
Procedure: as §1

[9] = system: IGFBP-1; assay: Plasma IGFBP-1 levels among groups in healthy mice (Table 6); format: in vivo, mouse; conditions: mean ± SEM
Procedure: as §1

[10] = system: peripheral leucocytes; assay: Peripheral leucocytes among treatment groups of healthy mice (Table 7); format: in vivo, mouse; conditions: mean ± SEM
Procedure: as §1

[11] = system: germ cells; conditions: cited from earlier work
[12] = mouse, in vivo
Procedure: as §2, §3

[13] = mouse, in vivo; remark: listed apart in the source
[14] = during in vivo treatment with CP (Drumond, et al., 2011)

Compound: HN-C8A: Cys8 to Ala; MAPRGFSALLLLTSEIDLPVKRRA (SEQ ID NO: 42)
- Cytoprotective Action [1]: Not effective, prevents

Compound: HN-L12A: HN mutant, Leu12 to Ala (MAPRGFSCLLLATSEIDLPVKRRA; Humanin; UniProt Q8IVG9 1-24, looked up, variant L12A)
- Cytoprotective Action [1]: HN antagonist, forms

Compound: O=P1(N(CCCl)CCCl)NCCCO1 (stereo not shown) [CP, cyclophosphamide monohydrate]
- granulocyte count in the blood, of baseline value ([2]; CP 200 mg IP alone, two days after CP treatment (FIG. 1B)): about 25%
- WBC, fraction of the baseline counts ([2]; CP 200 mg IP alone, two days after treatment (FIG. 1A)): about ⅕
- WBC count, fraction of control values [3]: about ⅓
- number of white blood cells ([4]; CP alone vs non-treated tumor-bearing mice (FIG. 4A)): significantly suppressed
- granulocytes ([4]; CP alone vs non-treated tumor-bearing mice (FIG. 4B)): significantly suppressed
- monocytes ([4]; CP alone vs non-treated tumor-bearing mice (FIG. 4C)): significantly suppressed
- lymphocytes ([4]; CP alone vs non-treated tumor-bearing mice (FIG. 4D)): significantly suppressed
- plasma IGF-1 levels [5]: significantly suppressed
- number of metastatic tumors in the lungs [6]: significantly decreased
- platelet counts [7]: no significant decreases
- red blood cell counts [7]: no significant decreases
- IGF-1 (ng/ml) [8]: 182.4 ± 10.5^c ng/ml
- IGFBP-1 (ng/ml) [9]: 7.4 ± 1.3^b ng/ml
- Granulocytes (10^6/ml) [10]: 0.2 ± 0.02^b 10^6/ml
- Lymphocytes (10^6/ml) [10]: 0.07 ± 0.01^b 10^6/ml
- Monocytes (10^6/ml) [10]: 0.01 ± 0.01^b 10^6/ml
- Total WBC (10^6/ml) [10]: 0.3 ± 0.02^b 10^6/ml
- differentiated germ cells of mice [11, 14]: eliminated
- undifferentiated germ cells remained [11, 14]: about half
- germ cells regenerated from undifferentiated stem cells ([11]; once CP treatment was stopped (Drumond, et al., 2011)): about 64%

Compound: HN-S7A: MAPRGFACLLLLTSEIDLPVKRRA (SEQ ID NO: 24); Ser7 to Ala
- Cytoprotective Action [1]: Not effective, prevents

Compound: HN-F6A: MAPRGASCLLLLTSEIDLPVKRRA (SEQ ID NO: 22); Phe6 to Ala
- Cytoprotective Action [1]: Similar/more effective

Compound: HN-C8P: MAPRGFSPLLLLTSEIDLPVKRRA (SEQ ID NO: 25); Cys8 to Pro
- Cytoprotective Action [1]: Not effective, blocks

Compound: HN: MAPRGFSCLLLLTSEIDLPVKRRA (SEQ ID NO: 1); 24-amino acid mitochondrial derived peptide
- total number of white blood cells (WBC) ([2]; HNG 5mg/KG/day IP alone, adult healthy mice, two days after treatment, vs controls (FIG. 1A)): increased slightly but significantly

Compound: MAPRGFSCLLLLTGEIDLPVKRRA [HNG]
- plasma HNG levels [12]: increased
- HNG (ng/ml) [13]: 80.8 ± 7.8^b ng/ml
